# Where two headings read alike, the source gives them in different places. Starred links: 1 amine or outer side, 2 acyl side, 3 side chain; linkers in the order of their positions; H or OH if unused. Non-standard residues stand in square brackets, D forms with d. Residues, ends and D or L forms follow the SMILES beside them. X2 = CC(CCN1CCOCC1)C(O)C(C(=O)[*:2])N(C)[*:1]; X1 = CCN(C(C(=O)[*:2])C(C)C)[*:1]; NMeL = CN[CH](CC(C)C)C(=O)O; NMeV = CN[CH](C(=O)O)C(C)C; NMeA = CN[CH](C)C(=O)O; Abu = CC[CH](N)C(=O)O
# How the values were obtained:
# [1] = Water Solubility Assay (measured in pH 7.8 buffer); format: physicochemical; details: for Water Solubility Assay: pH 7.8;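 as to all read-outs here: precipitation onset detected as rise in absorbance at 650 nm across increasing concentrations, after shaking for 18 h, blank wells receiving DMSO only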
# Method: The aqueous solubility of a compound of Formula I in buffer (pH 7.8) was measured by recording the onset of precipitation of the compound as a function of increasing concentration. The onset of precipitation, if it occurred, was detected by an increase in absorbance at 650 nm.
# Assay Buffer: 35 mM HEPES pH 7.8
# Stock solutions of Control and Test Compounds: 10 mM in 100% DMSO
# 10 mM stock solutions of control and test compounds were prepared in 100% DMSO.
# Assay buffer (247.5 μl) was placed into flat bottomed transparent 96-well plate. For blank samples DMSO (2.5 μl) was added. For test and control samples 2.5 μl of the appropriate DMSO dilution stocks were added to the appropriate well. All test and control compounds were performed in triplicate.
# The plates were sealed with adhesive plate seal and shaken at 250 rpm at 25° C. for 18 h on a plate shaker.
# After incubation the plate seals were taken off and any bubbles observed in wells removed. The plates were read on a SpectraMaxM5 with a 5 s pre-shake at 650 nm.
# Data files were transferred to the appropriate worksheet and the solubility range of the compounds was calculated from the data.
# [2] = target: T1, Human recombinant cyclophilin A (Cyp A) (Homo sapiens, UniProt P62937);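 also: cis to trans isomerization of SUC-AAPF-pNA by 2 nM enzyme, read as absorbance at 330 nm over 300 s at 10 °C, catalytic rate corrected for uncatalyzed background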
# T1 sequence (P62937 whole entry): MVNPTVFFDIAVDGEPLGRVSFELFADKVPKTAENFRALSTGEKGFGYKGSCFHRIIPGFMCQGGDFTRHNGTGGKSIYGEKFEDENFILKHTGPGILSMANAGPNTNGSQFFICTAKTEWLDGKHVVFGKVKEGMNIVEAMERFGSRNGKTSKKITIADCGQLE
# [3] = target: T2, Calcineurin (Homo sapiens, UniProt P62937+P63098+Q08209)
# T2 sequence (P63098 whole entry, other chains not shown): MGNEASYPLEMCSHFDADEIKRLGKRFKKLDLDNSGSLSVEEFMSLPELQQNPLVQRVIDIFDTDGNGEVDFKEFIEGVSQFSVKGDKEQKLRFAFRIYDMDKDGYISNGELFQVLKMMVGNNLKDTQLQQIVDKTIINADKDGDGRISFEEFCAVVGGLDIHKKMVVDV
# T2 sequence (P62937 whole entry, other chains not shown): as the sequence (P62937 whole entry) above
# [4] = target: T1, Human recombinant cyclophilin A (Cyp A); test: Protease-free PPIase assay;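 also: cis to trans isomerization of SUC-AAPF-pNA by 2 nM enzyme, read as absorbance at 330 nm over 300 s at 10 °C, catalytic rate corrected for uncatalyzed background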
# [5] = target: T2, Calcineurin; test: Calcineurin Phosphatase (CaN) Assay with Cyp A (+CypA); details: for IC50: read-out: Calcineurin Phosphatase (CaN) Assay (+CypA) IC50, in the presence of Cyp A
# [6] = read-out: Protease-free PPIase Assay Ki, cyclophilin A, 10 °C
# [7] = 35 mM HEPES pH 7.8, 1% DMSO, 25 °C, 18 h, read-out: Water Solubility Assay, concentration at which the compound remains in solution
Structure (SMILES),"Ki [4, 6] [nM]","solubility at 18 h [1, 7] [µM]",IC50 ([5]; 1:1 complex with inhibitor) [nM],other results
"CC[C@H]1NC(=O)[C@@H]([C@H](O)[C@H](C)CCN2CC(F)(F)OC(F)(F)C2)N(C)C(=O)[C@@H](C(C)C)N(C)C(=O)[C@@H](CC(C)C)N(C)C(=O)[C@@H](CC(C)C)N(C)C(=O)[C@H](C)NC(=O)[C@@H](C)NC(=O)[C@@H](CC(C)C)N(C)C(=O)[C@@H](C(C)C)NC(=O)[C@H](CC(C)C)N(C)C(=O)[C@@H](C)N(C)C1=O [Compound EK, [(3R,4R,5S)-4-Hydroxy-3-methyl-5-(methylamino)-1-(2,2,6,6-tetrafluoro-morpholin-4-yl)-hexanoic acid]^1[(R)-methyl-Sar]^3 cyclosporin A]",–,–,–,Water Solubility Assay [1]: 25 to 50 µM; Ki [2]: 12 nM; immunosuppressive potential [3]: more immunosuppressive potential than others
CC[C@H]1NC(=O)[C@@H]([C@H](O)[C@H](C)CCN2CC(F)(F)OC(F)(F)C2)N(C)C(=O)[C@@H](C(C)C)N(C)C(=O)[C@@H](CC(C)C)N(C)C(=O)[C@@H](CC(C)C)N(C)C(=O)[C@H](C)NC(=O)[C@@H](C)NC(=O)[C@@H](CC(C)C)N(C)C(=O)[C@@H](C(C)C)NC(=O)[C@H](CC(C)C)N(C)C(=O)[C@@H](CO)N(C)C1=O [Compound EO],–,–,–,"Ki [4]: 13 nM; solubility at 18 h ([1]; 35 mM HEPES buffer pH 7.8, 25 °C, aqueous buffer, kinetic from dmso stock, pH 7.8 buffer, read-out: Water Solubility Assay): 10 to 25 µM; immunosuppressive potential ([5]; in words, as measured by the MLR and CaN assays): more immunosuppressive potential than others"
"CC[C@H]1NC(=O)[C@@H]([C@H](O)[C@H](C)CCN2CC(F)(F)C(F)(F)C2)N(C)C(=O)[C@@H](C(C)C)N(C)C(=O)[C@@H](CC(C)C)N(C)C(=O)[C@@H](CC(C)C)N(C)C(=O)[C@H](C)NC(=O)[C@@H](C)NC(=O)[C@@H](CC(C)C)N(C)C(=O)[C@@H](C(C)C)NC(=O)[C@H](CC(C)C)N(C)C(=O)[C@@H](C)N(C)C1=O [Compound ER, [(3R,4R,5S)-4-Hydroxy-3-methyl-5-(methylamino)-1-(3,3,4,4-tetrafluoro-pyrrolidin-1-yl)-hexanoic acid]^1[(R)-methyl-Sar]^3 cyclosporin A]",–,–,–,Water Solubility Assay [1]: 25 to 50 µM; Ki [2]: 6.7 nM; immunosuppressive potential [3]: more immunosuppressive potential than others
"CC[C@H]1NC(=O)[C@@H]([C@H](O)[C@H](C)CCN2CCC(F)(F)CC2)N(C)C(=O)[C@@H](C(C)C)N(C)C(=O)[C@@H](CC(C)C)N(C)C(=O)[C@@H](CC(C)C)N(C)C(=O)[C@H](C)NC(=O)[C@@H](C)NC(=O)[C@@H](CC(C)C)N(C)C(=O)[C@@H](C(C)C)NC(=O)[C@H](CC(C)C)N(C)C(=O)[C@@H](C)N(C)C1=O [Compound EN, [(3R,4R,5S)-(4,4-Difluoro-piperidin-1-yl)-4-hydroxy-3-methyl-5-(methylamino)-1-hexanoic acid]^1[(R)-methyl-Sar]^3 cyclosporin A]",–,–,–,Water Solubility Assay [1]: 25 to 50 µM; Ki [2]: 6.7 nM; immunosuppressive potential [3]: more immunosuppressive potential than others
"CCC1NC(=O)C(C(O)C(C)CCN2CCOCC2)N(C)C(=O)C(C(C)C)N(C)C(=O)C(CC(C)C)N(C)C(=O)C(CC(C)C)N(C)C(=O)C(C)NC(=O)C(C)NC(=O)C(CC(C)C)N(C)C(=O)C(C(C)C)NC(=O)C(CC(C)C)N(C)C(=O)C(CC)N(C)C1=O [Compound AB, [(3R,4R,5S)-4-hydroxy-3-methyl-5-(methylamino)-1-N-morpholino-hexanoic acid]^1[(R)-ethyl-Sar]^3 cyclosporin A]",5.6,>100,> 10000,–
"CC[C@H]1NC(=O)[C@@H]([C@H](O)[C@H](C)CCN2C[C@H]3CN(C)C[C@H]3C2)N(C)C(=O)[C@@H](C(C)C)N(C)C(=O)[C@@H](CC(C)C)N(C)C(=O)[C@@H](CC(C)C)N(C)C(=O)[C@H](C)NC(=O)[C@@H](C)NC(=O)[C@@H](CC(C)C)N(C)C(=O)[C@@H](C(C)C)NC(=O)[C@H](CC(C)C)N(C)C(=O)[C@@H](C)N(C)C1=O (relative stereo) [Compound O, [(3R,4R,5S)-4-Hydroxy-3-methyl-5-(methylamino)-1-(N-(3aR*,6aS*)-2-methyloctahydropyrrolo[3,4-c]pyrrolo)-hexanoic acid]^1[(R)-methyl-Sar]^3 cyclosporin A]",8.2,>100,> 10000,–
"CC[C@H]1NC(=O)[C@@H]([C@H](O)[C@H](C)CCN2CCOCC2)N(C)C(=O)[C@@H](C(C)C)N(C)C(=O)[C@@H](CC(C)C)N(C)C(=O)[C@@H](CC(C)C)N(C)C(=O)[C@H](C)NC(=O)[C@@H](C)NC(=O)[C@@H](CC(C)C)N(C)C(=O)[C@@H](C(C)C)NC(=O)[C@H](CC(C)C)N(C)C(=O)[C@@H](COCCN(CC)CC)N(C)C1=O [Compound S, [(3R,4R,5S)-4-Hydroxy-3-methyl-5-(methylamino)-1-N-morpholino-hexanoic acid]^1[(R)-2-diethylaminoethyloxymethyl-Sar]^3 cyclosporin A]",10,>100,> 10000,–
"CC[C@@H]1NC(=O)[C@H]([C@H](O)[C@H](C)CCCC(=O)N2C[C@H]3CN(C)C[C@H]3C2)N(C)C(=O)[C@H](C(C)C)N(C)C(=O)[C@H](CC(C)C)N(C)C(=O)[C@H](CC(C)C)N(C)C(=O)[C@@H](C)NC(=O)[C@H](C)NC(=O)[C@H](CC(C)C)N(C)C(=O)[C@H](C(C)C)NC(=O)[C@H](CC(C)C)N(C)C(=O)[C@@H](C)N(C)C1=O (relative stereo) [Compound ZZ, [(5R,6R,7S)-6-hydroxy-5-methyl-7-(methylamino)-1-(N-(3aR*,6aS*)-2-methyloctahydropyrrolo[3,4-c]pyrrolo)-1-oxo-octanoic acid]1[(R)-methyl-Sar]3 cyclosporin A]",2.6,>100,> 10000,–
"CC[C@H]1NC(=O)[C@@H]([C@H](O)[C@H](C)CCCC(=O)N2CCOCC2)N(C)C(=O)[C@@H](C(C)C)N(C)C(=O)[C@@H](CC(C)C)N(C)C(=O)[C@@H](CC(C)C)N(C)C(=O)[C@H](C)NC(=O)[C@@H](C)NC(=O)[C@@H](CC(C)C)N(C)C(=O)[C@@H](C(C)C)NC(=O)[C@H](CC(C)C)N(C)C(=O)[C@@H](C)N(C)C1=O [Compound H, [(5R,6R,7S)-6-hydroxy-5-methyl-7-(methylamino)-1-N-morpholino-1-oxo-octanoic acid]^1[(R)-methyl-Sar]^3 cyclosporin A]",3.9,>100,> 10000,–
"CC[C@H]1NC(=O)[C@@H]([C@H](O)[C@H](C)CCN2CCOCC2)N(C)C(=O)[C@@H](C(C)C)N(C)C(=O)[C@@H](CC(C)C)N(C)C(=O)[C@@H](CC(C)C)N(C)C(=O)[C@H](C)NC(=O)[C@@H](C)NC(=O)[C@@H](CC(C)C)N(C)C(=O)[C@@H](C(C)C)NC(=O)[C@H](CC(C)C)N(C)C(=O)[C@@H](CSCCN(CC)CC)N(C)C1=O [Compound AC, [(3R,4R,5S)-4-Hydroxy-3-methyl-5-(methylamino)-1-N-morpholino-hexanoic acid]^1[(S)-2-diethylaminoethylthiomethyl-Sar]^3 cyclosporin A]",7.5,>100,> 10000,–
"CC[C@H]1NC(=O)[C@@H]([C@H](O)[C@H](C)CCCCCN2CCOCC2)N(C)C(=O)[C@@H](C(C)C)N(C)C(=O)[C@@H](CC(C)C)N(C)C(=O)[C@@H](CC(C)C)N(C)C(=O)[C@H](C)NC(=O)[C@@H](C)NC(=O)[C@@H](CC(C)C)N(C)C(=O)[C@@H](C(C)C)NC(=O)[C@H](CC(C)C)N(C)C(=O)[C@@H](C)N(C)C1=O [Compound G, [(6R,7R,8S)-7-hydroxy-6-methyl-8-(methylamino)-1-N-morpholino-nonanoic acid]^1[(R)-methyl-Sar]^3 cyclosporin A]",6.2,>100,> 10000,–
CC[C@H]1NC(=O)[C@@H]([C@H](O)[C@H](C)CCN2CCC(F)(F)C2)N(C)C(=O)[C@@H](C(C)C)N(C)C(=O)[C@@H](CC(C)C)N(C)C(=O)[C@@H](CC(C)C)N(C)C(=O)[C@H](C)NC(=O)[C@@H](C)NC(=O)[C@@H](CC(C)C)N(C)C(=O)[C@@H](C(C)C)NC(=O)[C@H](CC(C)C)N(C)C(=O)[C@@H](CO)N(C)C1=O [Compound EP],–,–,–,"Ki [4]: 3.4 nM; solubility at 18 h ([1]; 25 °C, pH 7.8, aqueous buffer, kinetic from dmso stock): 50 to 75 µM; immunosuppressive potential [3]: more immunosuppressive potential than others"
CC[C@H]1NC(=O)[C@@H]([C@H](O)[C@H](C)CCN2CCCOCC2)N(C)C(=O)[C@@H](C(C)C)N(C)C(=O)[C@@H](CC(C)C)N(C)C(=O)[C@@H](CC(C)C)N(C)C(=O)[C@H](C)NC(=O)[C@@H](C)NC(=O)[C@@H](CC(C)C)N(C)C(=O)[C@@H](C(C)C)NC(=O)[C@H](CC(C)C)N(C)C(=O)[C@@H](C)N(C)C1=O [Compound X],4.9,>100,> 10000,–
"CCC1NC(=O)C(C(O)C(C)CCN2CCOCC2)N(C)C(=O)C(C(C)C)N(C)C(=O)C(CC(C)C)N(C)C(=O)C(CC(C)C)N(C)C(=O)C(C)NC(=O)C(C)NC(=O)C(CC(C)C)N(C)C(=O)C(C(C)C)NC(=O)C(C(C)C)N(CC)C(=O)C(C)N(C)C1=O [Compound EJ, [(3R,4R,5S)-4-Hydroxy-3-methyl-1-(morpholin-4-yl)-hexanoic acid]^1[(R)-methyl-Sar]^3[Ethyl-Val]^4 cyclosporin A] (cyclo([X1]V[NMeL]AA[NMeL][NMeL][NMeV][X2][Abu][NMeA]); configuration not given here)",–,–,–,"Ki ([4]; read-out: Protease-free PPIase Assay Ki, Cyclophilin A (Cyp A) inhibitory activity): 9 nM; solubility at 18 h ([1]; pH 7.8 buffer, read-out: Water Solubility Assay): >100 µM; IC50 [5]: > 10000 nM"

# Reference: patent US20160039880A1 (priority 2012, published 2016)
